{"source": "paper PMC8850191", "about": "“Mechanisms of inhibition and activation of extrasynaptic αβ GABAA receptors” (Nature, 2022)", "key": {"[1]": {"molecular_target": "T1, human GABAA α1β3 (WT) (Homo sapiens, UniProt P14867+P28472)", "T1 sequence (P14867 28-456)": "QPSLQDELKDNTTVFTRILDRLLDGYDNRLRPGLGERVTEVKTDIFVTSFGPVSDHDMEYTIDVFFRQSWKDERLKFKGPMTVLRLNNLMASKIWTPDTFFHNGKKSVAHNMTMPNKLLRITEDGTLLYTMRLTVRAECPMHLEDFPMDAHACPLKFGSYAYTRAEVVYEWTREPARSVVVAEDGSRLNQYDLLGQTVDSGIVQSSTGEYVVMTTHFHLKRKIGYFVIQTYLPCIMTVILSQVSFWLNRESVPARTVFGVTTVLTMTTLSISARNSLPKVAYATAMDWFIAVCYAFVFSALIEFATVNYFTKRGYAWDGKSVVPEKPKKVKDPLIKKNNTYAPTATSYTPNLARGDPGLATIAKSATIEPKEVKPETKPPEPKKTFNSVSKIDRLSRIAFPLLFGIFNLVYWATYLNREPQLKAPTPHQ", "T1 sequence (P28472 26-473)": "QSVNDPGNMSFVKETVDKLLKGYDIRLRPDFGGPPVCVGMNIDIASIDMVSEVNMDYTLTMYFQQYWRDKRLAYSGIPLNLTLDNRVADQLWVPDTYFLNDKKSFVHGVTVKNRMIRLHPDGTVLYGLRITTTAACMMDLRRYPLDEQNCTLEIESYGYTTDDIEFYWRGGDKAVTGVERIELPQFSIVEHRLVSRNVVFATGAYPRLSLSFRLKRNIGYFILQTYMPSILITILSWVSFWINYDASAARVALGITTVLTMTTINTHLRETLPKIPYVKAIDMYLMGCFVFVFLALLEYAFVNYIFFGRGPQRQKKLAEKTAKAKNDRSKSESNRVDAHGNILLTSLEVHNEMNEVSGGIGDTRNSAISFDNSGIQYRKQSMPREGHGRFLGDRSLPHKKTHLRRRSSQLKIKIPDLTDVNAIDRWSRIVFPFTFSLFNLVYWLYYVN", "assay": "Whole-cell patch clamp, GABA concentration response, HEK 293 cells", "format": "cell-based", "parameters": "expressed in transfected cells; host or cells: HEK 293 cells, transient calcium-phosphate transfection, α1:β3:GFP 1:1:1", "quoted_text": "(§1) Whole-cell responses were recorded in patch clamp experiments from HEK 293 cells transiently transfected with human GABAA α1β3 (WT), α1GLIVIβ3BRIL (α1β3cryo-EM; see ‘Constructs’) or α1β3γ2 (WT). HEK 293 cells were grown in DMEM supplemented with 10% v/v fetal bovine serum, 100 U ml^−1 penicillin-G and 100 µg ml^−1 streptomycin (37 °C; 95% air/5% CO2), and transfected using a calcium-phosphate precipitation method with α1:β3:GFP or α1:β3:γ2:GFP cDNAs in a ratio of 1:1:1 or 1:1:3:1, respectively, 12–24 h before experimentation. Recordings were performed with cells continuously perfused with Krebs solution composed of (mM): 140 NaCl, 4.7 KCl, 1.2 MgCl2, 2.52 CaCl2, 11 Glucose and 5 HEPES (pH 7.4; ~300 mOsm). Patch pipettes (TW150F-4; WPI; 3–4 MΩ) were filled with an internal solution containing (mM): 140 KCl, 1 MgCl2, 11 EGTA, 10 HEPES,1 CaCl2, 2 K-ATP (pH 7.2; ~305 mOsm). […] Cells were voltage-clamped at −40 mV with an Axopatch 200B amplifier (Molecular Devices), currents were digitized at 50 kHz via a Digidata 1322A (Molecular Devices), filtered at 5 kHz (−36 dB), and acquired using Clampex 10.2 (Molecular Devices). Series resistance was compensated at 60–70% (lag time 10 μs).\n(§2) Peak current responses and desensitization rates were obtained using Clampfit 10.2 (Molecular Devices)."}, "[2]": {"molecular_target": "T2, α1β3γ2WT (Homo sapiens, UniProt P14867+P18507+P28472)", "T2 construct": "expressed in transfected cells; host or cells: HEK 293 cells, transient calcium-phosphate transfection, α1:β3:γ2:GFP 1:1:3:1", "T2 sequence (P18507 40-475, one chain of several)": "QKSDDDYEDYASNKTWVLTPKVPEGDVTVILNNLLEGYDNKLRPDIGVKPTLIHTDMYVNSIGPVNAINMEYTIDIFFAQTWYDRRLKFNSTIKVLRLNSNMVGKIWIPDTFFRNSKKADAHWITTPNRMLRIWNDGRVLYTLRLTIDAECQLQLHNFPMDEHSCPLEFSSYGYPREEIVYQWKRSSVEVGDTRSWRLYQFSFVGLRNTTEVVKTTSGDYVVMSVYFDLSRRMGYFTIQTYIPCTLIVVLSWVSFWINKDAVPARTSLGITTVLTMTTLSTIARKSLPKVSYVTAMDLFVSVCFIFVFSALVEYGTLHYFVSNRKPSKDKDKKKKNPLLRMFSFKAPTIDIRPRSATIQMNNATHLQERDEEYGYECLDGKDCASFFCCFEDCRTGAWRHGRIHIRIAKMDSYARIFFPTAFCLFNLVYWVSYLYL", "assay": "Probability of activation (PA), whole-cell, saturating GABA versus GABA + 1 mM pentobarbitone", "format": "cell-based", "details": "n = 6", "quoted_text": "as §1"}, "[3]": {"molecular_target": "T2, α1β3γ2WT", "assay": "GABA concentration used for single channel recording (~EC95)", "format": "cell-based", "details": "concentration used for single channel recordings", "description": "Single GABA-activated channel currents were recorded in outside-out patches from transfected HEK 293 cells at –70 mV holding potential. Channel currents were recorded using an Axopatch 200B and filtered at 5 kHz (4-pole Bessel filter) before digitizing at 20 kHz with a Digidata 1322A. The fixed time resolution of the system was set at 80 μs. WinEDR was used for analysing single channel data. The single-channel current was determined from compiling channel current amplitude histograms and fitting Gaussian components to define the mean current, s.d. and the total area of the component. […] Individual open and closed dwell times were measured using a 50% threshold cursor applied to the main single channel current amplitude in each patch. The subsequent detection of open and closed events formed the basis of an idealized single channel record used for compiling the dwell time distributions. Frequency distributions were constructed from the measured individual open and closed times and analysed by fitting a mixture of exponentials, defined by: y(t)=∑i=1nAi/τi×e^(−t/τi) where Ai is the area of the ith component to the distribution and τi represents the corresponding exponential time constant. […] An F-test determined the optimal number of exponential components that were required to fit the individual dwell time distributions. […]"}, "[4]": {"system": "αβγ receptors", "details": "one β-subunit His replaced by Ile (γ-subunit), relative to αβ; cited from earlier work"}, "[5]": {"molecular_target": "T1, human GABAA α1β3 (WT)", "assay": "Whole-cell patch clamp, Zn2+ inhibition of GABA currents, HEK 293 cells", "format": "cell-based", "parameters": "expressed in transfected cells; host or cells: HEK 293 cells, transient calcium-phosphate transfection, α1:β3:GFP 1:1:1", "quoted_text": "as §1\n(§3) For free Zn^2+ concentration experiments, the Zn^2+ chelator tricine was used to precisely control Zn^2+ concentration and eliminate background Zn^2+ contamination. Krebs solution was supplemented with 10 mM tricine and pH corrected to 7.4.\nas §2"}, "[6]": {"molecular_target": "α1β3 cryo-EM construct (α1β3CryoEM) (Homo sapiens, UniProt P14867+P28472, DEL344-414/G341Q/R340S/S415R/S417A/V416A/Y342P)", "sequence (P14867 with tags, fused parts or gaps R340S/G341Q/Y342P/DEL344-414/S415R/V416A/S417A)": "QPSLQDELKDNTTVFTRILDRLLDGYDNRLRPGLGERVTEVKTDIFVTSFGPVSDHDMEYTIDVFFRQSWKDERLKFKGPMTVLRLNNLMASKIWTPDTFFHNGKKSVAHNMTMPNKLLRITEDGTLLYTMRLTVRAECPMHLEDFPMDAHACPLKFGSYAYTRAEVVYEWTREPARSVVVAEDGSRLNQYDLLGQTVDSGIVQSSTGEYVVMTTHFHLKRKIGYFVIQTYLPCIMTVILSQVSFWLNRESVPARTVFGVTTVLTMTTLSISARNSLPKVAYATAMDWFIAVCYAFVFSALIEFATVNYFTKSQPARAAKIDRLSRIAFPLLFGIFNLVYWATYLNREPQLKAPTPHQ", "sequence (P28472 with tags, fused parts or gaps, stated change not applied)": "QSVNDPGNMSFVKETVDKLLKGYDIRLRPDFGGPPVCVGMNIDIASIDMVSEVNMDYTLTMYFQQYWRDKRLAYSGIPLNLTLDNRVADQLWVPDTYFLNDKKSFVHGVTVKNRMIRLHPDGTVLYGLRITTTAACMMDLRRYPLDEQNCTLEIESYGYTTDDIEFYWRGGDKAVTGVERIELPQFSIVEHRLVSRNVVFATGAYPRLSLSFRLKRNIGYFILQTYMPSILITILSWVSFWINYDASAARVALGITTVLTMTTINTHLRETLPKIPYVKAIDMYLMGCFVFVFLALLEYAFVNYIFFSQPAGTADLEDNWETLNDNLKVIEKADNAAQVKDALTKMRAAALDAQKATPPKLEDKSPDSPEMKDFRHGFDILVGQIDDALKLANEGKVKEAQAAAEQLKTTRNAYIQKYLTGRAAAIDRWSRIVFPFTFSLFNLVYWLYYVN", "details": "for IC50: mean pIC50 converted", "excerpt": "The α1 intracellular M3–M4 loop amino acids 313–391 (RGYA…NSVS) were substituted by the SQPARAA sequence[46]. […] The mature engineered α1 construct with a 1D4 purification tag derived from bovine rhodopsin ([sequence]) that is recognized by the Rho-1D4 monoclonal antibody (University of British Columbia)[47],[48] was cloned into the pHLsec vector after the vector secretion signal[49], ending [sequence]. […] The engineered β3 construct was cloned into pHLsec after the vector secretion sequence without any tags.\nas §1, §3, §2"}, "[7]": {"system": "αβδ receptors", "details": "one β-subunit His replaced by Ser (δ-subunit), relative to αβ; cited from earlier work"}, "[8]": {"system": "α1β3", "parameters": "method as in earlier work", "details": "muscimol versus muscimol + propofol; ref 2020 Akk G Steinbach JH, PMID:32873746; cited from earlier work"}, "[9]": {"system": "GABA-A receptors", "details": "author rebuttal, peer review file; reference not given; cited from earlier work"}, "[10]": {"system": "α2-GABAAR subunit", "details": "Lys in α2 at the position of α1 Ser69; cited from earlier work"}, "[11]": {"details": "66 nM free Zn2+ (tricine-controlled), wild-type, mean ± s.e.m., n = 7"}, "[12]": {"details": "66 nM free Zn2+ (tricine-controlled), α1β3 cryo-EM construct, mean ± s.e.m., n = 7"}}, "note": "“And” between values parts separate entries of the source, which are not always exact repeats. Equal values may be shown once. Read-outs that look alike come from different tables or passages of the source.", "data": [{"molecule": "NCCCC(=O)O", "note": "[GABA, γ-aminobutyric acid]", "values": [{"measurement": "GABA EC20", "setting": "[1]; submaximal (20%) response, used for wild-type and cryo-EM construct", "value": 1000, "unit": "nM"}, {"measurement": "GABA ~EC95", "setting": "[1]; α1β3WT, concentration used for single channel recordings", "value": "~30000", "unit": "nM"}, {"measurement": "probability of activation (PA)", "setting": "[2]", "value": "> 0.9 and 0.94 ± 0.03"}, {"measurement": "GABA ~EC95", "setting": "[3]", "value": "~100000", "unit": "nM"}]}, {"molecule": "[Zn+2]", "note": "[Zn^2+]", "values": [{"measurement": "reduction of Zn2+ sensitivity", "setting": "[4]", "value": 200, "unit": "fold"}, {"measurement": "inhibition of EC20 (1 μM) GABA response", "setting": "[5]; [11]", "value": "38 ± 2", "unit": "%"}, {"measurement": "inhibition of maximal (1 mM) GABA response", "setting": "[5]; [11]", "value": "36 ± 6", "unit": "%"}, {"measurement": "IC50", "setting": "[5]; α1β3WT, 10 mM tricine, mean pIC50 converted, read-out: IC50 free Zn2+ inhibition", "value": 149, "unit": "nM"}, {"measurement": "pIC50 free Zn2+ inhibition", "setting": "[5]; α1β3WT, 10 mM tricine, n = 8", "value": "6.83 ± 0.1"}, {"measurement": "inhibition of EC20 (1 μM) GABA response", "setting": "[6]; [12]", "value": "32 ± 2", "unit": "%"}, {"measurement": "inhibition of maximal (1 mM) GABA response", "setting": "[6]; [12]", "value": "32 ± 4", "unit": "%"}, {"measurement": "inhibition", "setting": "[6]; 20 μM Zn2+, Extended Data Fig. 5a (shows WT and cryo-EM construct)", "value": "approximately 90%"}, {"measurement": "IC50", "setting": "[6]; read-out: IC50 Zn2+ inhibition, α1β3CryoEM, absence of tricine", "value": 220, "unit": "nM"}, {"measurement": "IC50", "setting": "[6]; read-out: IC50 free Zn2+ inhibition, α1β3CryoEM, 10 mM tricine", "value": 230, "unit": "nM"}, {"measurement": "pIC50 free Zn2+ inhibition", "setting": "[6]; α1β3CryoEM, 10 mM tricine, n = 7", "value": "6.64 ± 0.2"}, {"measurement": "pIC50 Zn2+ inhibition", "setting": "[6]; α1β3CryoEM, absence of tricine, n = 6", "value": "6.66 ± 0.11"}, {"measurement": "reduction of Zn2+ sensitivity", "setting": "[7]", "value": 50, "unit": "fold"}]}, {"molecule": "NCc1cc(=O)[nH]o1", "note": "[muscimol]", "values": [{"measurement": "probability of activation (PA)", "setting": "[8]", "value": "~ 0.6"}]}, {"molecule": "α-Cobratoxin (protein) IRCFITPDITSKDCPNGHVCYTKTWCDAFCSIRGKRVDLGCAATCPTVKTGVDIQCCSTDNCNPFPTRKRP", "values": [{"measurement": "sensitivity of GABA-A receptors", "setting": "[9]", "value": "sub-micromolar"}, {"measurement": "reduction of sensitivity to α-CBTx", "setting": "[10]", "value": "fivefold"}]}]}
